# From ChEMBL document CHEMBL3885861, “Open TG-GATES”
# Organism: Rattus norvegicus
# Assay: Open TG-GATES - Regimen: Daily Repeat
# Assay type: toxicity, organism-based, Sprague-Dawley
# Parameters: regimen Daily Repeat, gender Male, age 6 weeks
# Settings: in vivo, po, 1000 mg/kg, route gavage, dose level High; for APTT / Bas / Eos / Fbg / Hb / Ht / Lym / MCH / MCHC / MCV / Mono / Neu / PT / Plat / RBC / Ret / WBC: tissue Blood; for KIDNEY_L / KIDNEY_R / KIDNEY_TOTAL: tissue Kidney; for LIVER: tissue Liver; for A/G / ALP / ALT / AST / BUN / CRE / Ca / Cl / DBIL / GLC / IP / K / LDH / Na / PL / RALB / TBIL / TC / TG / TP / gamma-GTP: tissue Plasma
compound,measurement,setting,value
CNC(=C[N+](=O)[O-])NCCSCc1ccc(CN(C)C)o1 [RANITIDINE],TERMINAL_BW,"72 h, time 3 day",237.1 g
same,APTT,"72 h, time 3 day",20.1 s
same,Bas,"72 h, time 3 day",0%
same,Eos,"72 h, time 3 day",1%
same,Fbg,"72 h, time 3 day",231.6 mg/dL
same,Hb,"72 h, time 3 day",13.6 g/dL
same,Ht,"72 h, time 3 day",39.8%
same,Lym,"72 h, time 3 day",78.4%
same,MCH,"72 h, time 3 day",21.5 pg
same,MCHC,"72 h, time 3 day",34.1%
same,MCV,"72 h, time 3 day",63.1 fL
same,Mono,"72 h, time 3 day",3%
same,Neu,"72 h, time 3 day",16%
same,PT,"72 h, time 3 day",12 s
same,Plat,"72 h, time 3 day",117.3 x10_4/uL
same,RBC,"72 h, time 3 day",631.4 x10_4/ul
same,Ret,"72 h, time 3 day",4.8%
same,WBC,"72 h, time 3 day",85 x10_2/uL
same,KIDNEY_L,"72 h, time 3 day",1 g
same,KIDNEY_R,"72 h, time 3 day",1 g
same,KIDNEY_TOTAL,"72 h, time 3 day",2 g
same,LIVER,"72 h, time 3 day",12 g
same,A/G,"72 h, time 3 day",1.6
same,ALP,"72 h, time 3 day",907.8 IU/L
same,ALT,"72 h, time 3 day",41.2 IU/L
same,AST,"72 h, time 3 day",69.4 IU/L
same,BUN,"72 h, time 3 day",14.8 mg/dL
same,CRE,"72 h, time 3 day",0.4 mg/dL
same,Ca,"72 h, time 3 day",11 mg/dL
same,Cl,"72 h, time 3 day",103.6 meq/L
same,DBIL,"72 h, time 3 day",0.098 mg/dL
same,GLC,"72 h, time 3 day",198.4 mg/dL
same,IP,"72 h, time 3 day",8 mg/dL
same,K,"72 h, time 3 day",4 meq/L
same,LDH,"72 h, time 3 day",216.6 IU/L
same,Na,"72 h, time 3 day",140.6 meq/L
same,PL,"72 h, time 3 day",148.4 mg/dL
same,RALB,"72 h, time 3 day",3.4 g/dL
same,TBIL,"72 h, time 3 day",0.2 mg/dL
same,TC,"72 h, time 3 day",80 mg/dL
same,TG,"72 h, time 3 day",107.4 mg/dL
same,TP,"72 h, time 3 day",5.6 g/dL
same,gamma-GTP,"72 h, time 3 day",1.4 IU/L
same,TERMINAL_BW,"[…], time 7 day",264.9 g
same,TERMINAL_BW,"[…], time 14 day",314.9 g
same,TERMINAL_BW,"[…], time 28 day",379.9 g
same,APTT,"[…], time 7 day",19.6 s
same,Bas,"[…], time 7 day",0%
same,Eos,"[…], time 7 day",0.8%
same,Fbg,"[…], time 7 day",216.8 mg/dL
same,Hb,"[…], time 7 day",13.9 g/dL
same,Ht,"[…], time 7 day",39.1%
same,Lym,"[…], time 7 day",82.2%
same,MCH,"[…], time 7 day",21.7 pg
same,MCHC,"[…], time 7 day",35.5%
same,MCV,"[…], time 7 day",61.2 fL
same,Mono,"[…], time 7 day",1.6%
same,Neu,"[…], time 7 day",12.8%
same,PT,"[…], time 7 day",12.5 s
same,Plat,"[…], time 7 day",121.8 x10_4/uL
same,RBC,"[…], time 7 day",639.4 x10_4/ul
same,Ret,"[…], time 7 day",5%
same,WBC,"[…], time 7 day",99 x10_2/uL
same,APTT,"[…], time 14 day",18.9 s
same,Bas,"[…], time 14 day",0%
same,Eos,"[…], time 14 day",1%
same,Fbg,"[…], time 14 day",234.2 mg/dL
same,Hb,"[…], time 14 day",14.5 g/dL
same,Ht,"[…], time 14 day",40.3%
same,Lym,"[…], time 14 day",77.8%
same,MCH,"[…], time 14 day",21.2 pg
same,MCHC,"[…], time 14 day",36.1%
same,MCV,"[…], time 14 day",58.7 fL
same,Mono,"[…], time 14 day",2.4%
same,Neu,"[…], time 14 day",18%
same,PT,"[…], time 14 day",12.1 s
same,Plat,"[…], time 14 day",118.7 x10_4/uL
same,RBC,"[…], time 14 day",686 x10_4/ul
same,Ret,"[…], time 14 day",4.3%
same,WBC,"[…], time 14 day",87.7 x10_2/uL
same,APTT,"[…], time 28 day",19.8 s
same,Bas,"[…], time 28 day",0%
same,Eos,"[…], time 28 day",1.2%
same,Fbg,"[…], time 28 day",234.2 mg/dL
same,Hb,"[…], time 28 day",15.5 g/dL
same,Ht,"[…], time 28 day",43.3%
same,Lym,"[…], time 28 day",77.2%
same,MCH,"[…], time 28 day",20.1 pg
same,MCHC,"[…], time 28 day",35.9%
same,MCV,"[…], time 28 day",56.2 fL
same,Mono,"[…], time 28 day",1.8%
same,Neu,"[…], time 28 day",18.6%
same,PT,"[…], time 28 day",12.2 s
same,Plat,"[…], time 28 day",113 x10_4/uL
same,RBC,"[…], time 28 day",769.8 x10_4/ul
same,Ret,"[…], time 28 day",2.2%
same,WBC,"[…], time 28 day",104.7 x10_2/uL
same,KIDNEY_L,"[…], time 7 day",1.1 g
same,KIDNEY_R,"[…], time 7 day",1.2 g
same,KIDNEY_TOTAL,"[…], time 7 day",2.3 g
same,KIDNEY_L,"[…], time 14 day",1.2 g
same,KIDNEY_R,"[…], time 14 day",1.2 g
same,KIDNEY_TOTAL,"[…], time 14 day",2.4 g
same,KIDNEY_L,"[…], time 28 day",1.4 g
same,KIDNEY_R,"[…], time 28 day",1.4 g
same,KIDNEY_TOTAL,"[…], time 28 day",2.8 g
same,LIVER,"[…], time 7 day",12.3 g
same,LIVER,"[…], time 14 day",14.2 g
same,LIVER,"[…], time 28 day",15.4 g
same,A/G,"[…], time 7 day",1.5
same,ALP,"[…], time 7 day",852.4 IU/L
same,ALT,"[…], time 7 day",37.2 IU/L
same,AST,"[…], time 7 day",65.4 IU/L
same,BUN,"[…], time 7 day",16.8 mg/dL
same,CRE,"[…], time 7 day",0.4 mg/dL
same,Ca,"[…], time 7 day",10.7 mg/dL
same,Cl,"[…], time 7 day",103.6 meq/L
same,DBIL,"[…], time 7 day",0.088 mg/dL
same,GLC,"[…], time 7 day",224.4 mg/dL
same,IP,"[…], time 7 day",7.8 mg/dL
same,K,"[…], time 7 day",3.7 meq/L
same,LDH,"[…], time 7 day",169.6 IU/L
same,Na,"[…], time 7 day",140.6 meq/L
same,PL,"[…], time 7 day",137.2 mg/dL
same,RALB,"[…], time 7 day",3.3 g/dL
same,TBIL,"[…], time 7 day",0.1 mg/dL
same,TC,"[…], time 7 day",76.8 mg/dL
same,TG,"[…], time 7 day",82.4 mg/dL
same,TP,"[…], time 7 day",5.5 g/dL
same,gamma-GTP,"[…], time 7 day",0.8 IU/L
same,A/G,"[…], time 14 day",1.4
same,ALP,"[…], time 14 day",785 IU/L
same,ALT,"[…], time 14 day",37.2 IU/L
same,AST,"[…], time 14 day",62.8 IU/L
same,BUN,"[…], time 14 day",17.6 mg/dL
same,CRE,"[…], time 14 day",0.5 mg/dL
same,Ca,"[…], time 14 day",10.5 mg/dL
same,Cl,"[…], time 14 day",103 meq/L
same,DBIL,"[…], time 14 day",0.08 mg/dL
same,GLC,"[…], time 14 day",193 mg/dL
same,IP,"[…], time 14 day",7.4 mg/dL
same,K,"[…], time 14 day",4.2 meq/L
same,LDH,"[…], time 14 day",205.8 IU/L
same,Na,"[…], time 14 day",141.8 meq/L
same,PL,"[…], time 14 day",137.8 mg/dL
same,RALB,"[…], time 14 day",3.5 g/dL
same,TBIL,"[…], time 14 day",0.1 mg/dL
same,TC,"[…], time 14 day",66.4 mg/dL
same,TG,"[…], time 14 day",104 mg/dL
same,TP,"[…], time 14 day",5.8 g/dL
same,gamma-GTP,"[…], time 14 day",1.2 IU/L
same,A/G,"[…], time 28 day",1.3
same,ALP,"[…], time 28 day",562.8 IU/L
same,ALT,"[…], time 28 day",38.8 IU/L
same,AST,"[…], time 28 day",61 IU/L
same,BUN,"[…], time 28 day",17.2 mg/dL
same,CRE,"[…], time 28 day",0.5 mg/dL
same,Ca,"[…], time 28 day",10.5 mg/dL
same,Cl,"[…], time 28 day",102.2 meq/L
same,DBIL,"[…], time 28 day",0.094 mg/dL
same,GLC,"[…], time 28 day",198.6 mg/dL
same,IP,"[…], time 28 day",7.2 mg/dL
same,K,"[…], time 28 day",3.8 meq/L
same,LDH,"[…], time 28 day",114.2 IU/L
same,Na,"[…], time 28 day",141.6 meq/L
same,PL,"[…], time 28 day",142.6 mg/dL
same,RALB,"[…], time 28 day",3.5 g/dL
same,TBIL,"[…], time 28 day",0.2 mg/dL
same,TC,"[…], time 28 day",70.4 mg/dL
same,TG,"[…], time 28 day",96 mg/dL
same,TP,"[…], time 28 day",6.1 g/dL
same,gamma-GTP,"[…], time 28 day",0.8 IU/L
